ChEMBL document CHEMBL1201862, “PubChem BioAssay data set” (2004)
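Exposure lasted 48 hours, with cells grown in 96-well plates and compounds tested at five concentrations. GI50: concentration for 50% inhibition of growth.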 Active and inactive are the calls of the source. Rule as the data show it: active = GI50 up to about 1.1 µM and inactive = higher.

Columns and labels:
Assay in all cases: NCI-60 cell line screen, 48 h
[1] = test system: A498
[2] = test system: CCRF-CEM
[3] = test system: HCC 2998
[4] = test system: HT-29
[5] = test system: Hs-578T
[6] = test system: K562
[7] = test system: M14
[8] = test system: MOLT-4
[9] = test system: Malme-3M
[10] = test system: NCI-H226
[11] = test system: NCI-H460
[12] = test system: OVCAR-8
[13] = test system: PC-3
[14] = test system: SF-295
[15] = test system: SK-MEL-2
[16] = test system: SN12C
[17] = test system: SW-620
[18] = test system: UACC-62
[19] = test system: COLO 205
[20] = test system: SK-OV-3

SMILES: Cc1sc2nc(-c3cc([N+](=O)[O-])c(Cl)cc3Cl)c(/C=N/NC(=N)N)n2c1C
- GI50 [1]: 19.5 µM (inactive)
- GI50 [2]: 4.31 µM (inactive)
- GI50 [3]: 2.34 µM (inactive)
- GI50 [4]: 3.25 µM (inactive)
- GI50 [5]: 16.7 µM (inactive)
- GI50 [6]: 3.06 µM (inactive)
- GI50 [7]: 2.76 µM (inactive)
- GI50 [8]: 1.62 µM (inactive)
- GI50 [9]: 13.8 µM (inactive)
- GI50 [10]: 26.8 µM (inactive)
- GI50 [11]: 6.34 µM (inactive)
- GI50 [12]: 5.7 µM (inactive)
- GI50 [13]: 5.69 µM (inactive)
- GI50 [14]: 13 µM (inactive)
- GI50 [15]: 1.97 µM (inactive)
- GI50 [16]: 5.65 µM (inactive)
- GI50 [17]: 13.6 µM (inactive)
- GI50 [18]: 14.7 µM (inactive)

SMILES: CCC(=O)Nc1ccc(NCC(=O)Nc2ccc(Cl)cc2)cc1
- GI50 [1]: 17.7 µM (inactive)
- GI50 [2]: 12.5 µM (inactive)
- GI50 [19]: 16.9 µM (inactive)
- GI50 [3]: 13.2 µM (inactive)
- GI50 [4]: 10.6 µM (inactive)
- GI50 [5]: 37 µM (inactive)
- GI50 [6]: 24 µM (inactive)
- GI50 [7]: 15.3 µM (inactive)
- GI50 [8]: 21 µM (inactive)
- GI50 [9]: 19.7 µM (inactive)
- GI50 [10]: 18.2 µM (inactive)
- GI50 [12]: 27.5 µM (inactive)
- GI50 [13]: 15.1 µM (inactive)
- GI50 [14]: 14.4 µM (inactive)
- GI50 [15]: 14.8 µM (inactive)
- GI50 [20]: 16.9 µM (inactive)
- GI50 [16]: 17.1 µM (inactive)
- GI50 [17]: 24.7 µM (inactive)
- GI50 [18]: 12.4 µM (inactive)

SMILES: CC(C)C[C@H](NC(=O)CCc1cccc2ccccc12)B(O)O
- GI50 [1]: 0.497 µM (active)
- GI50 [19]: 4.59 µM (inactive)
- GI50 [3]: 0.64 µM (active)
- GI50 [4]: 0.628 µM (active)
- GI50 [5]: 0.857 µM (active)
- GI50 [6]: 2.34 µM (inactive)
- GI50 [7]: 0.942 µM (active)
- GI50 [8]: 0.375 µM (active)
- GI50 [9]: 0.871 µM (active)
- GI50 [10]: 0.161 µM (active)
- GI50 [11]: 3.21 µM (inactive)
- GI50 [12]: 2.81 µM (inactive)
- GI50 [13]: 3.9 µM (inactive)
- GI50 [14]: 1.74 µM (inactive)
- GI50 [15]: 1.03 µM (active)
- GI50 [20]: 8.73 µM (inactive)
- GI50 [16]: 2.19 µM (inactive)
- GI50 [17]: 0.676 µM (active)
- GI50 [18]: 1.3 µM (inactive)

SMILES: CC(C)(C)c1ccc(-n2c3nc(=O)n(-c4ccccc4C(F)(F)F)c(=O)c-3cc3ccccc32)cc1
- GI50 [1]: 31.3 µM (inactive)
- GI50 [2]: 13.3 µM (inactive)
- GI50 [19]: 19.1 µM (inactive)
- GI50 [3]: 14.2 µM (inactive)
- GI50 [4]: 8.32 µM (inactive)
- GI50 [5]: 21.9 µM (inactive)
- GI50 [6]: 16.9 µM (inactive)
- GI50 [7]: 14.4 µM (inactive)
- GI50 [8]: 17.9 µM (inactive)
- GI50 [10]: 17 µM (inactive)
- GI50 [11]: 4.25 µM (inactive)
- GI50 [12]: 19.6 µM (inactive)
- GI50 [13]: 17 µM (inactive)
- GI50 [14]: 19 µM (inactive)
- GI50 [15]: 14.6 µM (inactive)
- GI50 [16]: 20.2 µM (inactive)
- GI50 [17]: 25.8 µM (inactive)
- GI50 [18]: 14.9 µM (inactive)

SMILES: CC(=O)OCC1OC(n2c3c(c(-c4ccc(Cl)cc4)c(C#N)c2=S)C(=O)CC(C)(C)C3)C(OC(C)=O)C(OC(C)=O)C1OC(C)=O (stereo unspecified)
- GI50 [1]: 30.3 µM (inactive)
- GI50 [2]: 3.95 µM (inactive)
- GI50 [19]: 25 µM (inactive)
- GI50 [3]: 4.68 µM (inactive)
- GI50 [4]: 15.7 µM (inactive)
- GI50 [5]: 20.7 µM (inactive)
- GI50 [6]: 3.23 µM (inactive)
- GI50 [7]: 27.5 µM (inactive)
- GI50 [8]: 4.45 µM (inactive)
- GI50 [9]: 43.3 µM (inactive)
- GI50 [10]: 27.5 µM (inactive)
- GI50 [11]: 33.7 µM (inactive)
- GI50 [12]: 9.55 µM (inactive)
- GI50 [13]: 10.9 µM (inactive)
- GI50 [14]: 32.6 µM (inactive)
- GI50 [15]: 23.4 µM (inactive)
- GI50 [16]: 16 µM (inactive)
- GI50 [17]: 7.06 µM (inactive)
- GI50 [18]: 7.62 µM (inactive)

SMILES: COC(=O)c1ccccc1/C=C1\Cc2c(C)c3c(c(C)c2C1=O)CCC3
- GI50 [1]: > 100 µM (inactive)
- GI50 [2]: > 100 µM (inactive)
- GI50 [19]: > 100 µM (inactive)
- GI50 [3]: > 100 µM (inactive)
- GI50 [4]: > 100 µM (inactive)
- GI50 [5]: 24.5 µM (inactive)
- GI50 [6]: > 100 µM (inactive)
- GI50 [7]: > 100 µM (inactive)
- GI50 [8]: > 100 µM (inactive)
- GI50 [9]: > 100 µM (inactive)
- GI50 [10]: > 100 µM (inactive)
- GI50 [11]: > 100 µM (inactive)
- GI50 [12]: > 100 µM (inactive)
- GI50 [13]: > 100 µM (inactive)
- GI50 [14]: > 100 µM (inactive)
- GI50 [15]: 6.27 µM (inactive)
- GI50 [16]: > 100 µM (inactive)
- GI50 [17]: > 100 µM (inactive)
- GI50 [18]: > 100 µM (inactive)

SMILES: Cc1cc(OC(=O)Nc2ccc(Cl)cc2)ccc1C(=S)Nc1ccccc1
- GI50 [1]: 96.6 µM (inactive)
- GI50 [2]: 20.7 µM (inactive)
- GI50 [19]: 40.6 µM (inactive)
- GI50 [3]: 26.3 µM (inactive)
- GI50 [4]: 24.5 µM (inactive)
- GI50 [5]: 91 µM (inactive)
- GI50 [6]: 6.49 µM (inactive)
- GI50 [7]: 12.6 µM (inactive)
- GI50 [8]: 29.6 µM (inactive)
- GI50 [9]: 53 µM (inactive)
- GI50 [11]: 18.5 µM (inactive)
- GI50 [12]: > 100 µM (inactive)
- GI50 [13]: > 100 µM (inactive)
- GI50 [14]: 38.5 µM (inactive)
- GI50 [15]: 66.2 µM (inactive)
- GI50 [20]: > 100 µM (inactive)
- GI50 [16]: > 100 µM (inactive)
- GI50 [17]: > 100 µM (inactive)
- GI50 [18]: 3.85 µM (inactive)
